Laboratory results published in patent US9283257B2, “Compositions comprising solanum tuberosum for lowering cytosolic NADH level to mimic calorie restriction” (Nox Technologies, Inc., priority 2009, dated 2016).
Like-named read-outs stand apart in the source and are kept apart here.

Test system: NADH levels in yeast
Test: yeast NADH autofluorescence assay
Format: cell-based, Saccharomyces cerevisiae
Text: Reduced forms of NAD(P)H show fluorescence with peaks of excitation and emission in the regions of 340 and 450 nm, respectively, that are used to monitor changes in cytosolic NAD(P)H levels. Because oxidized forms of these pyridine nucleotides have minimal fluorescence at this wavelength, a specific strain of Saccharomyces cerevisiae is used as the primary indicator and the assay is set up in a […] microtiter plate format. Fluorescence measurements are taken with an automated plate reader after 2 h of incubation in the presence of at least three log dilutions of the candidate calorie restriction mimic under investigation.
A 10 mL culture of S. cerevisiae (wild type-BY4741, available from American Type Culture Collection, Manassas, Va., ATCC Number 201388) Genotype/ORF/Gene MATa his3delta1 leu2delta0 met15delta0 ura3delta0. The yeast cells are grown overnight in Yeast Extract Peptone Dextrose (YEPD) liquid medium at 30 C with shaking. OD600 of the culture should be between 0.800 and 1.000 prior to assay usage. To remove unwanted autofluorescence, the medium components are removed by the following process.
Aliquots of the yeast culture are transferred to individual 1 mL micro-centrifuge tubes, and the yeast are pelleted in a bench-top centrifuge by spinning at 1000 RPM for 10 min. Excessive centrifugation speeds (over 1000 rpm) are not used because they could damage the yeast; and live yeast are required for the assay. The medium is decanted, and the yeast are resuspended in an equal volume of 1× phosphate buffered saline (137 mM NaCl, 2.7 mM KCl, 10 mM Na2HPO4, 1.76 mM KH2PO4, pH 7.4) and 7.5 mM glucose (PBSG). […] This preparation of yeast is used in the subsequent auto-fluorescence measurements at an optical density (bulk turbidity) at 600 nm between 0.8 and 1.0.
For fluorescence reading samples are added to a black 96 well cell culture plate. […] A single well of each compound or preparation 5 μL+100 μL of 1×PBSG should be added to account for the fluorescence due to additive.
Experiments are conducted using a Fluoroskan II (Titer-Tek) fluorescent plate reader, which is controlled by Genesis software v 2.0 and used in accordance with the manufacturer' instructions. […] These parameters include a) type—whether the measurement is a single measurement or series of measurement over a given time (kinetic), b) excitation and emission wavelengths (for NADH autofluorescence the excitation wavelength is 340 nm and the emission wavelength is 450 nm.) c) interval at which measurements should be taken (every 20 seconds is sufficient) d) duration of each reading which is set at 5 sec per well, and e) the duration of the measurement which is set to 1 hr. […]

CC1(C)CCC2=C(O1)c1ccccc1C(=O)C2=O [β-Lapachrone]
EC50 (yeast system; read-out: Concentration of known stimulators of NADH oxidation to increase NADH consumption by 50% in the yeast system): 40 µM

O=C(O)CC(=O)C(=O)O [Oxaloacetic acid]
EC50 (Saccharomyces cerevisiae, read-out: Concentration of known stimulators of NADH oxidation to increase NADH consumption by 50% in the yeast system): 20 µM

O=CC[C@@H](O)[C@H](O)[C@H](O)CO [2-Deoxyglucose, 2-deoxy-D-glucose]
EC50 (Saccharomyces cerevisiae; read-out: Concentration of known stimulators of NADH oxidation to increase NADH consumption by 50% in the yeast system): 2000 µM | cytosolic NADH levels (glucose of the yeast culture medium replaced with 2DG): reduced
